These results are taken from patent US20100204203A1, “Chemical Compounds 637: Pyridopyrimidinediones as PDE4 Inhibitors” (priority 2007, published 2010).

Each structure is given as a SMILES string. Where a name gives a salt, the structure may show the parent alone.

T1 sequence (Q07343 1-564 isoform Q07343-2): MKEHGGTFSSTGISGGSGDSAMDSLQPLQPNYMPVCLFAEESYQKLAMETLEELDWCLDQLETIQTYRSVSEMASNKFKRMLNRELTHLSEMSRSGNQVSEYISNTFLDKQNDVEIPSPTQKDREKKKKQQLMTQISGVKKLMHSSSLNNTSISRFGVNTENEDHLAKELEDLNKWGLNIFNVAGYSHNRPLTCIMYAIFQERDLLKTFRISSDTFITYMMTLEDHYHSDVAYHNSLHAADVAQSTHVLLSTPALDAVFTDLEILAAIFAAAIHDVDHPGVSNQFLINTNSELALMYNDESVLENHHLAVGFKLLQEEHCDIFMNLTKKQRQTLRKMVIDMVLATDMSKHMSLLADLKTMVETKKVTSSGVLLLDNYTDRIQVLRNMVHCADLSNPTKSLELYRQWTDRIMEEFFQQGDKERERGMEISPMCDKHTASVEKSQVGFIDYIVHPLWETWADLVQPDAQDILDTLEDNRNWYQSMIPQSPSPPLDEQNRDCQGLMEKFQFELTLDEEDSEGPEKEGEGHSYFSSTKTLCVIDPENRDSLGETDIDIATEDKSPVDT

For one test, the target named is T1, recombinant Human Phosphodiesterase B2 (PDE4B2) (Homo sapiens, UniProt Q07343). Put plainly: Human Phosphodiesterase B2 Radiometric Assay (yttrium silicate SPA beads, [3H]cyclic AMP). Conditions: recombinant human PDE4B2, radiometric SPA assay, 8 nM [3H]cyclic AMP; read-out: PDE4B2 pIC50 (converted). The format is biochemical. The method in brief:
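Read-out is scintillation proximity: yttrium silicate beads (with 18 mM ZnSO4, added to stop the reaction) bind 5′AMP formed from 8 nM [3H]cAMP over 20 min. Beforehand, compound and 0.1 mg/mL enzyme were preincubated 30 min at 30 °C in pH 7.5 HEPES buffer with MgCl2, EGTA and Brij 35; pIC50 values were curve-fitted.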
Consider `Cc1cc(C(=O)N[C@H]2CC[C@@H](n3c(=O)c4cc(F)cnc4n(-c4cccc(-c5ccc(CN6CCN(C7CCCC7)CC6)cc5)c4)c3=O)CC2)nn1C` [Example 215, N-{cis-4-[1-{4′-[(4-cyclopentylpiperazin-1-yl)methyl]biphenyl-3-yl}-6-fluoro-2,4-dioxo-1,4-dihydropyrido[2,3-d]pyrimidin-3(2H)-yl]cyclohexyl}-1,5-dimethyl-1H-pyrazole-3-carboxamide], for which the IC50 was 31.6 pM.

Consider `CN1CCCN(Cc2ccc(-c3cccc(-n4c(=O)n([C@H]5CC[C@@H](NC(=O)c6cc7c(o6)CCCC7=O)CC5)c(=O)c5cc(F)cnc54)c3)cc2)CC1` [Example 310, N-{cis-4-[6-fluoro-1-{4′-[(4-methyl-1,4-diazepan-1-yl)methyl]biphenyl-3-yl}-2,4-dioxo-1,4-dihydropyrido[2,3-d]pyrimidin-3(2H)-yl]cyclohexyl}-4-oxo-4,5,6,7-tetrahydro-1-benzofuran-2-carboxamide], for which the IC50 is 126 pM.

`O=C(N[C@H]1CC[C@@H](n2c(=O)c3cc(F)cnc3n(-c3cccc(Sc4ccccc4)c3)c2=O)CC1)c1cn2cc(F)ccc2n1` [Example 44, 6-fluoro-N-{cis-4-[6-fluoro-2,4-dioxo-1-[3-(phenylthio)phenyl]-1,4-dihydropyrido[2,3-d]pyrimidin-3(2H)-yl]cyclohexyl}imidazo[1,2-a]pyridine-2-carboxamide]: the IC50 is 63.1 pM. The same measure, in the same setting: with `O=C(N[C@H]1CC[C@@H](n2c(=O)c3cc(F)cnc3n(-c3cccc(-c4ccccc4CN4CCOCC4)c3)c2=O)CC1)C1(O)CC1` [Example 48, N-{cis-4-[6-fluoro-1-[2′-(morpholin-4-ylmethyl)biphenyl-3-yl]-2,4-dioxo-1,4-dihydropyrido[2,3-d]pyrimidin-3(2H)-yl]cyclohexyl}-1-hydroxycyclopropanecarboxamide] the figure was 398 pM. The same measure, in the same setting: the result for `O=C(N[C@H]1CC[C@@H](n2c(=O)c3cc(F)cnc3n(-c3cccc(-c4ccc(CN5CCCCC5)cc4)c3)c2=O)CC1)c1cn2c(n1)CCCC2` [Example 119, N-{cis-4-[6-fluoro-2,4-dioxo-1-[4′-(piperidin-1-ylmethyl)biphenyl-3-yl]-1,4-dihydropyrido[2,3-d]pyrimidin-3(2H)-yl]cyclohexyl}-5,6,7,8-tetrahydroimidazo[1,2-a]pyridine-2-carboxamide] reads 316 pM. Still for that read-out and setting: the result for `O=C(N[C@H]1CC[C@@H](n2c(=O)c3cc(F)cnc3n(-c3cccc(-c4ccc(CN5CCN(C6CCCC6)CC5)cc4)c3)c2=O)CC1)c1cn2c(n1)CCCC2` [Example 221, N-{cis-4-[1-{4′-[(4-cyclopentylpiperazin-1-yl)methyl]biphenyl-3-yl}-6-fluoro-2,4-dioxo-1,4-dihydropyrido[2,3-d]pyrimidin-3(2H)-yl]cyclohexyl}-5,6,7,8-tetrahydroimidazo[1,2-a]pyridine-2-carboxamide] reads 10 pM. In the case of `O=C(N[C@H]1CC[C@@H](n2c(=O)c3cc(F)cnc3n(-c3cccc(-c4ccc(CN5CCN(C6CCCC6)CC5)cc4)c3)c2=O)CC1)c1cnccn1` [Example 295, N-{cis-4-[1-{4′-[(4-cyclopentylpiperazin-1-yl)methyl]biphenyl-3-yl}-6-fluoro-2,4-dioxo-1,4-dihydropyrido[2,3-d]pyrimidin-3(2H)-yl]cyclohexyl} pyrazine-2-carboxamide], the IC50 is 100 pM. The same measure, in the same setting: with `CN1CCCN(Cc2ccc(-c3cccc(-n4c(=O)n([C@H]5CC[C@@H](NC(=O)c6cc7ccccc7cn6)CC5)c(=O)c5cc(F)cnc54)c3)cc2)CC1` [Example 359, N-{cis-4-[6-fluoro-1-{4′-[(4-methyl-1,4-diazepan-1-yl)methyl]biphenyl-3-yl}-2,4-dioxo-1,4-dihydropyrido[2,3-d]pyrimidin-3(2H)-yl]cyclohexyl} isoquinoline-3-carboxamide] the figure was 25.1 pM; with `C[C@@H]1CN(Cc2ccc(-c3cccc(-n4c(=O)n([C@H]5CC[C@@H](NC(=O)c6ccc7ccccc7n6)CC5)c(=O)c5cc(F)cnc54)c3)cc2)C[C@H](C)N1` [Example 300, N-{cis-4-[1-(4′-{[(3R,5S)-3,5-dimethylpiperazin-1-yl]methyl}biphenyl-3-yl)-6-fluoro-2,4-dioxo-1,4-dihydropyrido[2,3-d]pyrimidin-3(2H)-yl]cyclohexyl} quinoline-2-carboxamide], 31.6 pM. Still for that read-out and setting: with `O=C(N[C@H]1CC[C@@H](n2c(=O)c3cc(F)cnc3n(-c3cccc(-c4cccc(CN5CCCCC5)c4)c3)c2=O)CC1)c1cn2cc(F)ccc2n1` [Example 14, 6-fluoro-N-{cis-4-[6-fluoro-2,4-dioxo-1-[3′-(piperidin-1-ylmethyl)biphenyl-3-yl]-1,4-dihydropyrido[2,3-d]pyrimidin-3(2H)-yl]cyclohexyl}imidazo[1,2-a]pyridine-2-carboxamide.] the figure was 200 pM; with `C[C@H]1CN(Cc2ccc(-c3cccc(-n4c(=O)n([C@H]5CC[C@@H](NC(=O)c6cn7cc(F)ccc7n6)CC5)c(=O)c5cc(F)cnc54)c3)cc2)CCN1` (relative stereo) [Example 271, 6-Fluoro-N-{cis-4-[6-fluoro-1-(4′-{[(3S)-3-methylpiperazin-1-yl]methyl}biphenyl-3-yl)-2,4-dioxo-1,4-dihydropyrido[2,3-d]pyrimidin-3(2H)-yl]cyclohexyl}imidazo[1,2-a]pyridine-2-carboxamide], 7.94 pM; with `CC(C)NC(=O)CN1CCN(Cc2ccc(-c3cccc(-n4c(=O)n([C@H]5CC[C@@H](NC(=O)c6cn7c(n6)CCCC7)CC5)c(=O)c5cc(F)cnc54)c3)cc2)CC1` [Example 219, N-{cis-4-[6-fluoro-1-[4′-({4-[2-(isopropylamino)-2-oxoethyl]piperazin-1-yl}methyl)biphenyl-3-yl]-2,4-dioxo-1,4-dihydropyrido[2,3-d]pyrimidin-3(2H)-yl]cyclohexyl}-5,6,7,8-tetrahydroimidazo[1,2-a]pyridine-2-carboxamide], 5.01 pM. Regarding `O=C(N[C@H]1CC[C@@H](n2c(=O)c3cc(F)cnc3n(-c3cccc(-c4ccc(OCCO)cc4)c3)c2=O)CC1)c1cn2cc(F)ccc2n1` [Example 58, 6-fluoro-N-{cis-4-[6-fluoro-1-[4′-(2-hydroxyethoxy)biphenyl-3-yl]-2,4-dioxo-1,4-dihydropyrido[2,3-d]pyrimidin-3(2H)-yl]cyclohexyl}imidazo[1,2-a]pyridine-2-carboxamide], the IC50 is 15.8 pM.

With `O=C(N[C@H]1CC[C@@H](n2c(=O)c3cc(F)cnc3n(-c3cccc(-c4ccc(O)cc4CN4CCNCC4)c3)c2=O)CC1)c1cn2cc(F)ccc2n1` [Example 72, 6-fluoro-N-{cis-4-[6-fluoro-1-[4′-hydroxy-2′-(piperazin-1-ylmethyl)biphenyl-3-yl]-2,4-dioxo-1,4-dihydropyrido[2,3-d]pyrimidin-3(2H)-yl]cyclohexyl}imidazo[1,2-a]pyridine-2-carboxamide trifluoroacetate salt], the IC50 is 50.1 pM.

`CN(Cc1ccccc1)C(=O)c1cccc(-n2c(=O)n([C@H]3CC[C@@H](NC(=O)c4cn5cc(F)ccc5n4)CC3)c(=O)c3cc(F)cnc32)c1` [Example 90, N-{cis-4-[1-(3-{[benzyl(methyl)amino]carbonyl}phenyl)-6-fluoro-2,4-dioxo-1,4-dihydropyrido[2,3-d]pyrimidin-3(2H)-yl]cyclohexyl}-6-fluoroimidazo[1,2-a]pyridine-2-carboxamide]: the IC50 was 1260 pM.

For the next test, the target named is T1, recombinant Human Phosphodiesterase B2 (PDE4B2). As to the kind of experiment: Human Phosphodiesterase B2 Alpha Screen Assay. The conditions noted are these: Alpha Screen cAMP kit; 15 min preincubation, 60 min reaction at room temperature; Xlfit model 205; read-out: PDE4B2 pIC50 (converted). It is filed as biochemical. As for the experimental part:
Human Phosphodiesterase B2 Alpha Screen Assay
The assay uses recombinant Human Phosphodiesterase B2 (PDE4B2) produced in house (PrAZL0133), stored at −20° C. The substrate uses cAMP, part of the Alpha Screen cAMP kit (Perkin Elmer, Cat# 6760625M), stored at 4° C. The Alpha Screen kit also includes biotinylated cAMP, acceptor and donor beads.
The assay additions were as follows: Test compounds and controls were added to white 384-well flat-bottom plates (Greiner, Cat#781075), 0.2 μl in 100% DMSO, followed by 10 μl PDE4B2 in reaction buffer. The reaction buffer constitution was: 50 mM Tris (pH 7.5), 8.3 mM MgCl2, 1.7 mM EGTA and 0.01% (w/v) Brij®35. The enzyme and the compounds were incubated at room temperature for 15 minutes. Then 10 μl cAMP in reaction buffer was added. The assay was stopped after 60 minutes incubation at room temperature by adding 10 μl acceptor beads in detection buffer with 40 mM EDTA. The detection buffer constitution was: 5 mM Tris (pH 7.5), 0.1% (w/v) BSA and 0.1% (v/v) Tween 20. This addition followed by an addition of 10 μl donor beads in detection buffer, with biotinylated cAMP. The plates were then incubated, dark at room temperature, for 5 hours followed by measurement on a Fusion™-α analyser. pIC50 values (presented in Table 14) were determined using Xlfit curve fitting using model 205.
For `O=C(N[C@H]1CC[C@@H](n2c(=O)c3cc(F)cnc3n(C3CCCC3)c2=O)CC1)c1cn2ccccc2n1` [Example 7, N-[cis-4-(1-cyclopentyl-6-fluoro-2,4-dioxo-1,4-dihydropyrido[2,3-d]pyrimidin-3(2H)-yl)cyclohexyl]imidazo[1,2-a]pyridine-2-carboxamide], the IC50 is 631 pM. On the same count and under the same terms, the result for `O=C(N[C@H]1CC[C@@H](n2c(=O)c3cc(F)cnc3n(Cc3ccc(F)cc3)c2=O)CC1)c1cn2ccccc2n1` [Example 9, N-{cis-4-[6-fluoro-1-(4-fluorobenzyl)-2,4-dioxo-1,4-dihydropyrido[2,3-d]pyrimidin-3(2H)-yl]cyclohexyl}imidazo[1,2-a]pyridine-2-carboxamide] reads 3160 pM.
